Measured values from ChEMBL document CHEMBL1201862, “PubChem BioAssay data set” (2004).
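In this assay, cells in 96-well plates receive the compound at five concentrations for 48 hours. Endpoints are linearly interpolated between the surrounding concentrations. Here, GI50 denotes the concentration required for 50% inhibition of growth.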 Calls of active or inactive are those of the source. No stated cut-off is given here; in the data, active = GI50 up to about 1.1 µM and inactive = higher.

How the values were obtained:
Assay in all cases: inhibition of tumour cell growth, NCI panel, 48 h
CCRF-CEM = tested on: CCRF-CEM
HT-29 = tested on: HT-29
IGROV-1 = tested on: IGROV-1
M14 = tested on: M14
MDA-MB-231 = tested on: MDA-MB-231
NCI-H522 = tested on: NCI-H522
OVCAR-8 = tested on: OVCAR-8
SF-268 = tested on: SF-268
SF-295 = tested on: SF-295
SF-539 = tested on: SF-539
SK-MEL-28 = tested on: SK-MEL-28
SK-OV-3 = tested on: SK-OV-3
SNB-75 = tested on: SNB-75
SR = tested on: SR
T47D = tested on: T47D
TK-10 = tested on: TK-10
U-251 = tested on: U-251
UACC-62 = tested on: UACC-62
UO-31 = tested on: UO-31
MDA-N = tested on: MDA-N

Measured: GI50

N#CC1(C#N)NC(c2cccs2)C(C#N)(C#N)NC1c1cccs1 (stereo unspecified)
inactive: CCRF-CEM 22.2 µM | HT-29 47.3 µM | IGROV-1 30.3 µM | M14 31.3 µM | MDA-MB-231 80.9 µM | NCI-H522 23.1 µM | OVCAR-8 54.7 µM | SF-268 35.5 µM | SF-295 52.5 µM | SF-539 19.9 µM | SK-MEL-28 29.6 µM | SK-OV-3 33.7 µM | SNB-75 27.4 µM | SR 28.2 µM | T47D 51.2 µM | TK-10 > 100 µM | U-251 22.8 µM | UACC-62 20.6 µM | UO-31 42.6 µM

COc1ccc2c(c1OC)OC[C@@H](C1=CC(=O)C=C(O)C1=O)C2
inactive: CCRF-CEM 1.36 µM | HT-29 17.7 µM | IGROV-1 11.7 µM | M14 12.4 µM | MDA-MB-231 4.46 µM | NCI-H522 2.7 µM | OVCAR-8 19.1 µM | SF-268 18.1 µM | SF-295 16.1 µM | SF-539 13.5 µM | SK-MEL-28 16.9 µM | SK-OV-3 16.6 µM | SNB-75 9.62 µM | SR 6.31 µM | T47D 4.25 µM | TK-10 14.2 µM | U-251 11.7 µM | UACC-62 12.1 µM | UO-31 12.6 µM

Cc1cccc(/C=N/NC(=S)Nc2ccccc2)n1
inactive: HT-29 3.17 µM | IGROV-1 2.84 µM | M14 2.49 µM | MDA-N 4 µM | NCI-H522 1.48 µM | OVCAR-8 2.43 µM | SF-268 3.31 µM | SF-295 6.3 µM | SF-539 2.89 µM | SK-MEL-28 12.2 µM | SK-OV-3 9.53 µM | SNB-75 3.67 µM | SR 16.6 µM | T47D 2.84 µM | TK-10 2.43 µM | U-251 4.32 µM | UACC-62 3.68 µM | UO-31 3.43 µM

O=C(/C=C/c1ccc(O)c([N+](=O)[O-])c1)CC(=O)/C=C/c1ccc(O)c([N+](=O)[O-])c1
inactive: CCRF-CEM 30.5 µM | HT-29 42.7 µM | IGROV-1 24.9 µM | M14 65.8 µM | MDA-MB-231 23.4 µM | MDA-N 86.5 µM | NCI-H522 36.3 µM | OVCAR-8 19.8 µM | SF-268 54.6 µM | SF-295 62.5 µM | SF-539 > 100 µM | SK-MEL-28 33.9 µM | SK-OV-3 83.2 µM | SNB-75 > 100 µM | TK-10 92.5 µM | U-251 21.4 µM | UACC-62 88.1 µM | UO-31 > 100 µM

Cn1c(=O)n2n(c1=O)[C@@H](c1ccccc1)[C@H]2c1ccccc1
inactive: CCRF-CEM > 100 µM | HT-29 > 100 µM | IGROV-1 > 100 µM | M14 > 100 µM | MDA-MB-231 > 100 µM | OVCAR-8 > 100 µM | SF-295 > 100 µM | SF-539 > 100 µM | SK-MEL-28 > 100 µM | SK-OV-3 > 100 µM | SNB-75 31 µM | SR > 100 µM | TK-10 > 100 µM | U-251 > 100 µM | UACC-62 > 100 µM | UO-31 > 100 µM

CCc1ncc(CO)n1Cc1cccc2ccccc12
inactive: HT-29 96.8 µM | IGROV-1 > 100 µM | M14 > 100 µM | MDA-MB-231 > 100 µM | MDA-N > 100 µM | NCI-H522 > 100 µM | OVCAR-8 > 100 µM | SF-268 > 100 µM | SF-295 53.1 µM | SF-539 > 100 µM | SK-MEL-28 > 100 µM | SK-OV-3 > 100 µM | SNB-75 31.3 µM | T47D 77.3 µM | TK-10 99.5 µM | U-251 > 100 µM | UACC-62 > 100 µM | UO-31 > 100 µM

NC(=O)C(=O)N/N=C1\C(=O)N(c2ccc(Cl)cc2Cl)C(=O)C1C(=O)Nc1ccc(Cl)cc1Cl (stereo unspecified)
inactive: CCRF-CEM > 100 µM | HT-29 > 100 µM | IGROV-1 > 100 µM | M14 > 100 µM | NCI-H522 > 100 µM | OVCAR-8 > 100 µM | SF-268 > 100 µM | SF-295 > 100 µM | SF-539 > 100 µM | SK-MEL-28 > 100 µM | SK-OV-3 > 100 µM | SNB-75 28.8 µM | SR > 100 µM | TK-10 > 100 µM | U-251 > 100 µM | UACC-62 > 100 µM | UO-31 > 100 µM

Cc1ccc(N/C(Sc2ccccc2)=C(/C(Cl)=C(Cl)Cl)[N+](=O)[O-])c(C)c1
inactive: CCRF-CEM 17.9 µM | HT-29 18.3 µM | IGROV-1 19.5 µM | M14 21.5 µM | MDA-MB-231 18.9 µM | NCI-H522 17.8 µM | OVCAR-8 34.5 µM | SF-268 14 µM | SF-295 25.1 µM | SF-539 21.7 µM | SK-MEL-28 18.5 µM | SK-OV-3 37.8 µM | SR 23.3 µM | TK-10 45.6 µM | U-251 13.8 µM | UACC-62 30.6 µM
